From patent US8946209B2, “Compositions and methods for treating and preventing urolithiasis and conditions associated therewith” (OptMed, Inc., priority 2009, dated 2015)

Assays:
[1] = test system: human ureteral smooth muscle; assay: Relaxant effect of diazepam on EFS-induced contraction of human ureteral muscle rings (Example 3); assay type: cell-based
Procedure: (§1) Ureteral muscle rings obtained from women undergoing nephrectomy or ureteral muscle strips harvested from adult male Wistar rats (n=8 samples of each) were mounted in 5 mL organ baths containing Krebs-Henseleit solution. The organ baths were kept at 37±1° C. and continuously aerated with 95% O2-5% CO2. After 60 minutes of equilibration, smooth muscle samples were exposed to 80 or 30 mM KCl (human and rat, respectively) to assess their viability. After washout and 30 additional minutes of equilibration, electrical field stimulation (EFS) was started. […] Time-matched controls were obtained exposing tissues to a solution of drug vehicle without diazepam (DMSO in distilled water). At the end of the experiment, the maximal relaxant capacities of each tissue were determined by exposure to 10 μM forskolin.

[2] = test system: rat ureteral smooth muscle; assay: Relaxant effect of diazepam on EFS-induced contraction of rat ureteral muscle strips (Example 3); assay type: cell-based, Wistar rats
Procedure: as §1

## CN1C(=O)CN=C(c2ccccc2)c2cc(Cl)ccc21 [diazepam, 7-chloro-1,3-dihydro-1-methyl-5-phenyl-2H-1,4-benzodiazepin-2-one]
[1]; Homo sapiens, read-out: maximal relaxant effect (Emax), of the basal response to EFS
  Emax: 98.4 ± 0.2%
[1]; Homo sapiens, read-out: pIC50 for inhibition of EFS-induced contraction (converted)
  IC50: 4.47 µM
[1]; human ureter, following total inhibition of tissue contraction by diazepam
  restoration of baseline EFS-induced contractility after washout: restored after 3 washouts
[2]; read-out: maximal relaxant effect (Emax), of the basal response to EFS
  Emax: 67.4 ± 5%
[2]; read-out: pIC50 for inhibition of EFS-induced contraction (converted)
  IC50: 1120 nM
